This is an account of results in ChEMBL document CHEMBL4033666, “Synthesis and mechanistic evaluation of novel N'-benzylidene-carbohydrazide-1H-pyrazolo[3,4-b]pyridine derivatives as non-anionic antiplatelet agents” (Eur J Med Chem, 2017).

In data set [1] the test system is Platelet. In words: Antiplatelet activity in human platelet rich plasma assessed as inhibition of arachidonic acid-induced platelet aggregation at 100 uM preincubated for 2 mins followed by arachidonic acid addition by turbidimetric method relative to control. It is filed as functional.
Data set [2] deals with Platelet. Briefly: Antiplatelet activity in human platelet rich plasma assessed as inhibition of ADP-induced platelet aggregation at 100 uM preincubated for 2 mins followed by ADP addition by turbidimetric method relative to control. It is filed as cell-based.
Data set [3] relates to Platelet. In words: Antiplatelet activity in human platelet rich plasma assessed as inhibition of collagen-induced platelet aggregation at 100 uM preincubated for 2 mins followed by collagen addition by turbidimetric method relative to control. It is filed as cell-based.
Data set [4] relates to Platelet. In words: Antiplatelet activity in human platelet rich plasma assessed as inhibition of epinephrine-induced platelet aggregation at 100 uM preincubated for 2 mins followed by epinephrine addition by turbidimetric method relative to control. It is filed as cell-based.
Data set [5] is described as follows: Hemolytic activity against human erythrocytes after 3 hrs relative to control. To be noted: read-out: Activity. It is filed as ADME, cell-based, Erythrocyte.
The subject of data set [6] is Plasma. In words: Change in prothrombin time in human plasma at 100 uM incubated for 15 mins at room temperature and 2 mins at 37 degC in presence of calcium thromboplastin. It is filed as ADME, cell-free.
Data set [7] relates to Plasma. In words: Change in activated partial thromboplastin time in human plasma at 100 uM incubated for 15 mins at room temperature and 2 mins at 37 degC in presence of CaCl2. It is filed as ADME, cell-free.
In data set [8] the test system is Platelet. Briefly: Antiplatelet activity in human platelet rich plasma assessed as inhibition of arachidonic acid-induced platelet aggregation preincubated for 2 mins followed by arachidonic acid addition by turbidimetric method relative to control. It is filed as functional, cell-based.
The target in data set [9] is T1, Thromboxane-A synthase (Homo sapiens) (UniProt P24557).
T1 sequence (whole entry): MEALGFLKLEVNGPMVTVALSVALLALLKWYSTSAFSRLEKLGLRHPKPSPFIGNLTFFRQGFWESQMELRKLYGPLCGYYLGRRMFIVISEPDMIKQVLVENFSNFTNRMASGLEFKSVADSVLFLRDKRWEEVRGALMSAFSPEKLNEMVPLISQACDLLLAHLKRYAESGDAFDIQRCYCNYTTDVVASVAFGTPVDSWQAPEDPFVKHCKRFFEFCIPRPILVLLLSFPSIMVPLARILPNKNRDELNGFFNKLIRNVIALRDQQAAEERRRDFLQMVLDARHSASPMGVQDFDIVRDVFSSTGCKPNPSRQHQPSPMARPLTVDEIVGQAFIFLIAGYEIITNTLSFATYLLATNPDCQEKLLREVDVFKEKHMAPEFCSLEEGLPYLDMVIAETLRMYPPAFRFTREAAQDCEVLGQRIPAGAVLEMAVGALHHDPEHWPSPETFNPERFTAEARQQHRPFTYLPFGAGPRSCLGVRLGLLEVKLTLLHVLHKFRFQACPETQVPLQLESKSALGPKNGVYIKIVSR
Briefly: Inhibition of TXS in human platelet rich plasma assessed as decrease in TXB2 production at 100 uM using arachidonic acid after 5 mins by ELISA.

In general, inhibition refers to the relative decrease from the control value, in per cent. The IC50 is the point on the concentration scale where inhibition reaches its midpoint.

Activity calls are given as the source filed them.

In the case of `CCOc1ccc(/C=N/NC(=O)c2cc(C(F)(F)F)nc3c2c(C)nn3-c2ccccc2)cc1`, the inhibition at 100 µM in the data set with Platelet [1] was determined as 1.26%; with Platelet [2] it was 5.55%; in the data set on Platelet [3] it was 2%; in the data set with Platelet [4], 13.1%. In addition, the hemolysis at 3 h in data set [5] turned out to be 30%. For the same compound, the Activity entry with Plasma [6] and with Plasma [7] was “Non-Toxic” throughout.

Turning to `O=C(O)/C=C/c1ccc(Cn2ccnc2)cc1` [OZAGREL], the IC50 in the data set with Platelet [8] was 53.1 µM. For the same compound, in data set [9], the inhibition result is “Active”.

For `Cc1nn(-c2ccccc2)c2nc(C(F)(F)F)cc(C(=O)N/N=C/c3ccc(Cl)cc3)c12`, the inhibition at 100 µM in the data set on Platelet [1] worked out at 6.71%; in the data set on Platelet [2], 10.1%; with Platelet [3], 0%; in the data set with Platelet [4], 17%. Further, the Activity entry in the data set with Plasma [6] and with Plasma [7] was “Non-Toxic” each time.

Turning to `Cc1nn(-c2ccccc2)c2nc(C(F)(F)F)cc(C(=O)N/N=C/c3ccc(F)cc3)c12`, the inhibition at 100 µM in the data set on Platelet [1] was 0%; in the data set on Platelet [2], 7.95%; in the data set with Platelet [3] it was 0.3%; in the data set with Platelet [4] it was 0%. Further, the Activity result with Plasma [6] and in the data set on Plasma [7] was “Non-Toxic” throughout.

For `CC(=O)Oc1ccccc1C(=O)O` [ASPIRIN], the inhibition at 100 µM in the data set with Platelet [1] is 96.6%; with Platelet [2], 41.9%; in the data set on Platelet [3], 85.3%; in the data set on Platelet [4], 58.6%. Moreover, in the data set with Platelet [8], the IC50 came out at 37.6 µM. The inhibition entry in data set [9] was “Active”.

Take `COc1ccc(/C=N/NC(=O)c2cc(C(F)(F)F)nc3c2c(C)nn3-c2ccccc2)cc1`: the inhibition at 100 µM in the data set on Platelet [1] is 2.39%; with Platelet [2], 0%; in the data set with Platelet [3] it was 0%; in the data set on Platelet [4] it was 0%. Moreover, the Activity entry with Plasma [6] and with Plasma [7] was “Non-Toxic” each time.

For the compound `Cc1nn(-c2ccccc2)c2nc(C(F)(F)F)cc(C(=O)N/N=C/c3ccccc3)c12`, the inhibition at 100 µM in the data set with Platelet [1] worked out at 0.27%; in the data set with Platelet [2] it was 5.98%; in the data set with Platelet [3], 0%; in the data set on Platelet [4], 14.1%. In addition, the Activity entry with Plasma [6] and in the data set on Plasma [7] was “Non-Toxic” each time.

Take `Cc1nn(-c2ccccc2)c2nc(C(F)(F)F)cc(C(=O)N/N=C/c3ccc(Br)cc3)c12`: the inhibition at 100 µM with Platelet [1] was found to be 6.18%; with Platelet [2], 7.46%; in the data set on Platelet [3], 5.37%; in the data set with Platelet [4], 1.52%. The Activity entry in the data set with Plasma [6] and with Plasma [7] was “Non-Toxic” each time.

Consider `CCOc1ccc(/C=N/NC(=O)c2cc(C)nc3c2c(C)nn3-c2ccccc2)cc1`, for which the inhibition at 100 µM was 1.26% in the data set with Platelet [1], 1.69% in the data set with Platelet [2], 0% with Platelet [3] and 0% with Platelet [4]. In addition, the Activity result in the data set with Plasma [6] and in the data set on Plasma [7] was “Non-Toxic” in each case.

`COc1ccc(/C=N/NC(=O)c2cc(C)nc3c2c(C)nn3-c2ccccc2)cc1`: the inhibition at 100 µM came out at 3.43% with Platelet [1], 2.9% in the data set on Platelet [2], 15% with Platelet [3] and 8.4% in the data set on Platelet [4]. The Activity entry in the data set on Plasma [6] and in the data set on Plasma [7] was “Non-Toxic” each time.

Consider `Cc1nn(-c2ccccc2)c2nc(C(F)(F)F)cc(C(=O)N/N=C/c3ccc(O)cc3)c12`, for which the inhibition at 100 µM in the data set on Platelet [1] was 10.4%; in the data set with Platelet [2] it was 12.5%; with Platelet [3], 13.3%; in the data set on Platelet [4], 15.9%. The hemolysis at 3 h in data set [5] was determined as 99%. For the same compound, the Activity result in the data set on Plasma [6] and in the data set on Plasma [7] was “Non-Toxic” throughout.

In the case of `Cc1cc(C(=O)N/N=C/c2ccc(C#N)cc2)c2c(C)nn(-c3ccccc3)c2n1`, the inhibition at 100 µM turned out to be 24.4% in the data set with Platelet [1], 33.6% with Platelet [2], 1.68% in the data set on Platelet [3] and 0% in the data set with Platelet [4]. Moreover, the Activity result with Plasma [6] and in the data set with Plasma [7] was “Non-Toxic” in each case.

As to `Cc1ccc(/C=N/NC(=O)c2cc(C(F)(F)F)nc3c2c(C)nn3-c2ccccc2)cc1`, the inhibition at 100 µM was 0.27% in the data set with Platelet [1], 0.27% in the data set on Platelet [2], 7.84% in the data set on Platelet [3] and 0.71% in the data set with Platelet [4]. The Activity result in the data set on Plasma [6] and with Plasma [7] was “Non-Toxic” in each case.

As for `Cc1nn(-c2ccccc2)c2nc(C(F)(F)F)cc(C(=O)N/N=C/c3ccc(C#N)cc3)c12`, the inhibition at 100 µM was found to be 4.77% with Platelet [1], 4.55% in the data set with Platelet [2], 3.59% in the data set on Platelet [3] and 0% in the data set with Platelet [4]. In addition, the Activity result in the data set on Plasma [6] and in the data set on Plasma [7] was “Non-Toxic” each time.

On to `Cc1cc(C(=O)N/N=C/c2ccccc2)c2c(C)nn(-c3ccccc3)c2n1`, for which the inhibition at 100 µM in the data set with Platelet [1] stood at 3.96%; in the data set on Platelet [2], 0%; in the data set on Platelet [3], 9.6%; with Platelet [4] it was 7%. Moreover, the Activity result in the data set with Plasma [6] and in the data set with Plasma [7] was “Non-Toxic” throughout.

In the case of `Cc1nn(-c2ccccc2)c2nc(C(F)(F)F)cc(C(=O)N/N=C/c3ccc([N+](=O)[O-])cc3)c12`, the inhibition at 100 µM with Platelet [1] amounted to 0%; in the data set with Platelet [2], 6.93%; in the data set with Platelet [3], 0%; in the data set on Platelet [4] it was 0%. For the same compound, the Activity result in the data set with Plasma [6] and in the data set on Plasma [7] was “Non-Toxic” each time.
